Read-outs that look alike come from different tables or passages of the source.
What was measured:
Mcl-1 protein = Mcl-1 protein (UniProtKB primary accession number: Q07820) (Homo sapiens, UniProt Q07820); experiment: Inhibition of Mcl-1 by fluorescence polarisation, Method 1; format: binding; settings: read-out: IC50 (M) Mcl-1 FP
How it was run: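 Binding was measured as fluorescence polarisation of a fluorescein-labelled ligand (1 nM) displaced from Mcl-1 (5 nM), both final. Compounds ran as 11-point series with final DMSO at 5%.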

[1] = tested on: H929 multiple myeloma tumour line; experiment: In vitro cytotoxicity, Microculture Tetrazolium Assay; format: cell-based; settings: Homo sapiens, NCI-H929, 48 h, H929 cells, 48 hours exposure, MTT; read-out: IC50 (μM) MTT H929
Protocol: The cytotoxicity studies were carried out on the H929 multiple myeloma tumour line.
The cells are distributed onto microplates and exposed to the test compounds for 48 hours.

[2] = fluorescence polarisation test, Method 2 values are underlined in the patent (underlining not visible here)
[3] = fluorescence polarisation, Method 1, or Method 2

Mcl-1 protein, sequence (Q07820 whole entry): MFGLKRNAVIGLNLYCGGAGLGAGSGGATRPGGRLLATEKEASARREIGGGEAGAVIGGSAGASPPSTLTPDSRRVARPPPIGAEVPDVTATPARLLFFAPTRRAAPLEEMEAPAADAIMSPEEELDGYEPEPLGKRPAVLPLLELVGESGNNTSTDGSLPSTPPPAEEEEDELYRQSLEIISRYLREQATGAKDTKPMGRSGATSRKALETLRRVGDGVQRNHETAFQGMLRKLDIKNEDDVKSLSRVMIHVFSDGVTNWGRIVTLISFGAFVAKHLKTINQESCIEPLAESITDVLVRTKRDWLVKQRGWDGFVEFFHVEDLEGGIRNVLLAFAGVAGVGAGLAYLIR

Cc1c(-c2c(-c3ccco3)sc3ncnc(OC(Cc4ccccc4OCc4ccnn4-c4ccccc4)C(=O)O)c23)ccc(OCCN2CCN(C)CC2)c1Cl [Example 263, (2R)-2-{[(5Sa)-5-{3-chloro-2-methyl-4-[2-(4-methylpiperazin-1-yl)ethoxy]phenyl}-6-(furan-2-yl)thieno[2,3-d]pyrimidin-4-yl]oxy}-3-{2-[(1-phenyl-1H-pyrazol-5-yl)methoxy]phenyl}propanoic acid]
IC50 (Mcl-1 protein; [2]): 2e-09 M
IC50 [1]: 0.126 µM

Cc1c(-c2c(-c3ccco3)sc3ncnc(OC(Cc4ccccc4OCc4cscn4)C(=O)O)c23)ccc(OCCN2CCN(C)CC2)c1Cl [Example 281, (2R)-2-{[(5Sa)-5-{3-chloro-2-methyl-4-[2-(4-methylpiperazin-1-yl)ethoxy]phenyl}-6-(furan-2-yl)thieno[2,3-d]pyrimidin-4-yl]oxy}-3-[2-(1,3-thiazol-4-ylmethoxy)phenyl]propanoic acid]
IC50 (Mcl-1 protein; [2]): 7.9e-09 M
IC50 [1]: 0.081 µM

Cc1c(-c2c(-c3ccco3)sc3ncnc(OC(Cc4ccccc4OCCc4ccccn4)C(=O)O)c23)ccc(OCCN2CCN(C)CC2)c1Cl [Example 289, (2R)-2-{[(5Sa)-5-{3-chloro-2-methyl-4-[2-(4-methylpiperazin-1-yl)ethoxy]phenyl}-6-(furan-2-yl)thieno[2,3-d]pyrimidin-4-yl]oxy}-3-{2-[2-(pyridin-2-yl)ethoxy]phenyl}propanoic acid]
IC50 (Mcl-1 protein; [2]): 1.4e-08 M
IC50 [1]: 0.18 µM

CCCNC(=O)COc1ccccc1CC(Oc1ncnc2sc(-c3ccc(F)o3)c(-c3ccc(OCCN4CCN(C)CC4)c(Cl)c3C)c12)C(=O)O [Example 154, (2R)-2-{[(5Sa)-5-{3-chloro-2-methyl-4-[2-(4-methylpiperazin-1-yl)ethoxy]phenyl}-6-(5-fluorofuran-2-yl)thieno[2,3-d]pyrimidin-4-yl]oxy}-3-{2-[2-oxo-2-(propylamino)ethoxy]phenyl}propanoic acid]
IC50 (Mcl-1 protein; [2]): 6.6e-09 M
IC50 [1]: 0.1 µM

Cc1c(-c2c(-c3ccc(Cl)o3)sc3ncnc(OC(Cc4ccccc4OCc4ccncn4)C(=O)O)c23)ccc(OCCN2CCN(C)CC2)c1Cl [Example 370, (2R)-2-{[6-(5-chlorofuran-2-yl)-(5Sa)-5-{3-chloro-2-methyl-4-[2-(4-methylpiperazin-1-yl)ethoxy]phenyl}thieno[2,3-d]pyrimidin-4-yl]oxy}-3-[2-(pyrimidin-4-ylmethoxy)phenyl]propanoic acid]
IC50 (Mcl-1 protein; [2]): 8.7e-09 M
IC50 [1]: 0.018 µM

COc1ccccc1CC(Oc1ncnc2sc(-c3ccco3)c(-c3ccc(OCC4CCN(C)CC4)c(Cl)c3C)c12)C(=O)O [Example 311, (2R)-2-{[(5Sa)-5-{3-chloro-2-methyl-4-[(1-methylpiperidin-4-yl)methoxy]phenyl}-6-(furan-2-yl)thieno[2,3-d]pyrimidin-4-yl]oxy}-3-(2-methoxyphenyl)propanoic acid]
IC50 (Mcl-1 protein; [2]): 1.5e-08 M
IC50 [1]: 1.59 µM

CCc1sc2ncnc(OC(Cc3ccccc3)C(=O)O)c2c1-c1ccc(OCCN(C)C)c(Cl)c1C [Example 407, (2R)-2-[((5Sa)-5-{3-chloro-4-[2-(dimethylamino)ethoxy]-2-methylphenyl}-6-ethylthieno[2,3-d]pyrimidin-4-yl)oxy]-3-phenylpropanoic acid]
IC50 (Mcl-1 protein; [3]): 1.1e-07 M
IC50 [1]: 7.33 µM

CCn1nccc1COc1ccccc1CC(Oc1ncnc2sc(-c3ccc(F)c(F)c3)c(-c3ccc(OCCN4CCN(C)CC4)c(Cl)c3C)c12)C(=O)O [Example 708, (2R)-2-{[(5Sa)-5-{3-chloro-2-methyl-4-[2-(4-methylpiperazin-1-yl)ethoxy]phenyl}-6-(3,4-difluorophenyl)thieno[2,3-d]pyrimidin-4-yl]oxy}-3-{2-[(1-ethyl-1H-pyrazol-5-yl)methoxy]phenyl}propanoic acid]
IC50 (Mcl-1 protein; [3]): 9.6e-09 M
IC50 [1]: 0.055 µM

CCC#Cc1sc2ncnc(OC(Cc3ccccc3OC)C(=O)O)c2c1-c1ccc(OCCN2CCN(C)CC2)c(Cl)c1C [Example 573, (2R)-2-{[6-(but-1-yn-1-yl)-(5Sa)-5-{3-chloro-2-methyl-4-[2-(4-methylpiperazin-1-yl)ethoxy]phenyl}thieno[2,3-d]pyrimidin-4-yl]oxy}-3-(2-methoxyphenyl)propanoic acid]
IC50 (Mcl-1 protein; [3]): 1.1e-08 M
IC50 [1]: 0.366 µM

Cc1c(-c2c(-c3ccc(Cl)o3)sc3ncnc(OC(Cc4ccccc4OCc4cncnc4)C(=O)O)c23)ccc(OCCN2CCN(C)CC2)c1Cl [Example 375, (2R)-2-{[6-(5-chlorofuran-2-yl)-(5Sa)-5-{3-chloro-2-methyl-4-[2-(4-methylpiperazin-1-yl)ethoxy]phenyl}thieno[2,3-d]pyrimidin-4-yl]oxy}-3-[2-(pyrimidin-5-ylmethoxy)phenyl]propanoic acid]
IC50 (Mcl-1 protein; [2]): 5.6e-09 M
IC50 [1]: 0.081 µM

Cc1c(-c2c(-c3ccc(F)cc3)sc3ncnc(OC(Cc4ccccc4OCc4ccnc(-c5nccs5)n4)C(=O)O)c23)ccc(OCCN2CCN(C)CC2)c1Cl [Example 36, (2R)-2-{[(5Sa)-5-{3-chloro-2-methyl-4-[2-(4-methylpiperazin-1-yl)ethoxy]phenyl}-6-(4-fluorophenyl)thieno[2,3-d]pyrimidin-4-yl]oxy}-3-(2-{[2-(1,3-thiazol-2-yl)pyrimidin-4-yl]methoxy}phenyl)propanoic acid]
IC50 (Mcl-1 protein; [2]): 1.1e-08 M
IC50 [1]: 0.015 µM

Cc1c(-c2c(-c3ccc(F)cc3)sc3ncnc(OC(Cc4ccccc4OCc4ccnc(N5CCOCC5)c4)C(=O)O)c23)ccc(OCCN2CCN(C)CC2)c1Cl [Example 20, (2R)-2-{[(5Sa)-5-{3-chloro-2-methyl-4-[2-(4-methylpiperazin-1-yl)ethoxy]phenyl}-6-(4-fluorophenyl)thieno[2,3-d]pyrimidin-4-yl]oxy}-3-(2-{[2-(morpholin-4-yl)pyridin-4-yl]methoxy}phenyl)propanoic acid]
IC50 (Mcl-1 protein; [2]): 6.4e-09 M
IC50 [1]: 0.08 µM

Cc1c(-c2c(-c3ccco3)sc3ncnc(OC(Cc4ccccc4OCc4ncc(-c5ccccc5)cn4)C(=O)O)c23)ccc(OCCN2CCN(C)CC2)c1Cl [Example 283, (2R)-2-{[(5Sa)-5-{3-chloro-2-methyl-4-[2-(4-methylpiperazin-1-yl)ethoxy]phenyl}-6-(furan-2-yl)thieno[2,3-d]pyrimidin-4-yl]oxy}-3-{2-[(5-phenylpyrimidin-2-yl)methoxy]phenyl}propanoic acid]
IC50 (Mcl-1 protein; [2]): 2.6e-08 M
IC50 [1]: 0.25 µM

Cc1c(-c2c(-c3ccco3)sc3ncnc(OC(Cc4ccccc4OCc4nccn4C)C(=O)O)c23)ccc(OCCN2CCN(C)CC2)c1Cl [Example 287, (2R)-2-{[(5Sa)-5-{3-chloro-2-methyl-4-[2-(4-methylpiperazin-1-yl)ethoxy]phenyl}-6-(furan-2-yl)thieno[2,3-d]pyrimidin-4-yl]oxy}-3-{2-[(1-methyl-1H-imidazol-2-yl)methoxy]phenyl}propanoic acid]
IC50 (Mcl-1 protein; [2]): 8.3e-09 M
IC50 [1]: 0.667 µM

Cc1c(-c2c(-c3ccco3)sc3ncnc(OC(Cc4ccccc4OCc4ccncn4)C(=O)O)c23)ccc(OCCN2CCN(C)CC2)c1Cl [Example 259, (2R)-2-{[(5Sa)-5-{3-chloro-2-methyl-4-[2-(4-methylpiperazin-1-yl)ethoxy]phenyl}-6-(furan-2-yl)thieno[2,3-d]pyrimidin-4-yl]oxy}-3-[2-(pyrimidin-4-ylmethoxy)phenyl]propanoic acid]
IC50 (Mcl-1 protein; [2]): 5.2e-09 M
IC50 [1]: 0.07 µM

CCc1sc2ncnc(OC(Cc3ccccc3)C(=O)O)c2c1-c1cc2nc(CN3CCOCC3)oc2c(Cl)c1C [Example 446, (2R)-2-({(5Sa)-5-[7-chloro-6-methyl-2-(morpholin-4-ylmethyl)-1,3-benzoxazol-5-yl]-6-ethylthieno[2,3-d]pyrimidin-4-yl}oxy)-3-phenylpropanoic acid]
IC50 (Mcl-1 protein; [3]): 1.1e-07 M
IC50 [1]: 25.7 µM

Cc1cc(-c2nccc(COc3ccccc3CC(Oc3ncnc4sc(-c5ccc(F)cc5)c(-c5ccc(OCCN(C)C)c(Cl)c5C)c34)C(=O)O)n2)c(C)cn1 [Example 751, (2R)-2-{[(5Sa)-5-{3-chloro-4-[2-(dimethylamino)ethoxy]-2-methylphenyl}-6-(4-fluorophenyl)thieno[2,3-d]pyrimidin-4-yl]oxy}-3-(2-{[2-(2,5-dimethylpyridin-4-yl)pyrimidin-4-yl]methoxy}phenyl)propanoic acid]
IC50 (Mcl-1 protein; [3]): 9.48e-10 M
IC50 [1]: 0.008 µM

COc1ccc(-c2sc3ncnc(OC(Cc4ccccc4OCc4ccnn4CC(F)(F)F)C(=O)O)c3c2-c2ccc(OCCN3CCN(C)CC3)c(Cl)c2C)cn1 [Example 696, (2R)-2-{[(5Sa)-5-{3-chloro-2-methyl-4-[2-(4-methylpiperazin-1-yl)ethoxy]phenyl}-6-(6-methoxypyridin-3-yl)thieno[2,3-d]pyrimidin-4-yl]oxy}-3-(2-{[1-(2,2,2-trifluoroethyl)-1H-pyrazol-5-yl]methoxy}phenyl)propanoic acid]
IC50 (Mcl-1 protein; [3]): 9.6e-09 M
IC50 [1]: 0.05 µM

Cc1c(-c2c(-c3ccco3)sc3ncnc(OC(Cc4ccccc4OC(C)c4ccncc4)C(=O)O)c23)ccc(OCCN2CCN(C)CC2)c1Cl [Example 208, (2R)-2-{[(5Sa)-5-{3-chloro-2-methyl-4-[2-(4-methylpiperazin-1-yl)ethoxy]phenyl}-6-(furan-2-yl)thieno[2,3-d]pyrimidin-4-yl]oxy}-3-{2-[(1R)-1-(pyridin-4-yl)ethoxy]phenyl}propanoic acid]
IC50 (Mcl-1 protein; [2]): 5.5e-09 M
IC50 [1]: 0.571 µM

Cc1c(-c2c(-c3ccco3)sc3ncnc(OC(Cc4ccccc4OCc4ccccc4)C(=O)O)c23)ccc(OCCN2CCN(C)CC2)c1Cl [Example 240, (2R)-3-[2-(benzyloxy)phenyl]-2-{[(5Sa)-5-{3-chloro-2-methyl-4-[2-(4-methylpiperazin-1-yl)ethoxy]phenyl}-6-(furan-2-yl)thieno[2,3-d]pyrimidin-4-yl]oxy}propanoic acid]
IC50 (Mcl-1 protein; [2]): 7.2e-09 M
IC50 [1]: 0.225 µM

— patent US9670227B2, “Thienopyrimidine derivatives, a process for their preparation and pharmaceutical compositions containing them” (LES LABORATOIRES SERVIER, priority 2013, dated 2017)
